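1) Cells in 96-well plates. 2) Compound, 48 h, 5 concentrations. 3) Linear interpolation between surrounding doses. 4) Unreached endpoint = highest concentration. GI50 = concentration required for 50% inhibition of growth. Definition used: TGI = concentration required for complete inhibition of growth.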
Tests used:
Test in all cases: growth of human tumour cells (NCI), 48 h
[1] = tested on: NCI-H23 lung
[2] = tested on: PC-3 prostate
[3] = tested on: RPMI-8226 leukemia
[4] = tested on: SK-OV-3 ovarian
[5] = tested on: TK-10 renal
[6] = tested on: HS 578T breast
[7] = tested on: SF-295 CNS
[8] = tested on: SK-MEL-28 melanoma
[9] = tested on: UACC-257 melanoma
[10] = tested on: HOP-92 NSCLC
[11] = tested on: MALME-3M melanoma
[12] = tested on: 786-0 renal
[13] = tested on: M14 melanoma
[14] = tested on: NCI-H226 lung
[15] = tested on: COLO 205 colon
[16] = tested on: ACHN renal
[17] = tested on: K-562 leukemia
[18] = tested on: OVCAR-8 ovarian
[19] = tested on: SN12C renal
[20] = tested on: EKVX NSCLC
[21] = tested on: HCC-2998 colon
[22] = tested on: HT29 colon
[23] = tested on: NCI/ADR-RES ovarian
[24] = tested on: CCRF-CEM leukemia
[25] = tested on: SNB-19 CNS
[26] = tested on: MOLT-4 leukemia
[27] = tested on: HCT-116 colon
[28] = tested on: SF-539 CNS
[29] = tested on: KM12 colon
[30] = tested on: SF-268 CNS
[31] = tested on: UO-31 renal
[32] = tested on: NCI-H460 lung
[33] = tested on: OVCAR-4 ovarian
[34] = tested on: SW-620 colon
[35] = tested on: MDA-MB-231 breast
[36] = tested on: T-47D breast
[37] = tested on: RXF 393 renal
[38] = tested on: HL-60(TB) leukemia
[39] = tested on: OVCAR-5 ovarian
[40] = tested on: OVCAR-3 ovarian
[41] = tested on: LOX IMVI melanoma
[42] = tested on: SR leukemia
[43] = tested on: A498 renal
[44] = tested on: MDA-MB-435
[45] = tested on: HCT-15 colon
[46] = tested on: IGROV1 ovarian
[47] = tested on: HOP-62 NSCLC
[48] = tested on: DU-145 prostate
[49] = tested on: SK-MEL-2 melanoma
[50] = tested on: UACC-62 melanoma
[51] = tested on: U251 CNS
[52] = tested on: SNB-75 CNS
[53] = tested on: NCI-H522 lung
[54] = tested on: SK-MEL-5 melanoma
[55] = tested on: A549 NSCLC
[56] = tested on: BT-549 breast
[57] = tested on: MCF7 breast
[58] = tested on: CAKI-1 renal

Cn1ncc(NC(=O)c2nc(-c3c(F)cccc3F)sc2N)c1N1CC[C@@H](N)[C@H](F)CC1
GI50 [1]: 11.4 µM
TGI [1]: 34.4 µM
GI50 [2]: 3.6 µM
TGI [2]: 32 µM
GI50 [3]: 2.54 µM
TGI [3]: 29.3 µM
GI50 [4]: 1.42 µM
TGI [4]: 6 µM
GI50 [5]: 2.81 µM
TGI [5]: 41.7 µM
GI50 [6]: 2.99 µM
TGI [6]: 14.8 µM
GI50 [7]: 8.75 µM
TGI [7]: 24 µM
GI50 [8]: 10.4 µM
TGI [8]: 25.6 µM
GI50 [9]: 14.4 µM
TGI [9]: 30.6 µM
GI50 [10]: 4.12 µM
TGI [10]: 31.3 µM
GI50 [11]: 5.18 µM
TGI [11]: 21 µM
GI50 [12]: 3.75 µM
TGI [12]: 20.8 µM
GI50 [13]: 3.03 µM
TGI [13]: 18.5 µM
GI50 [14]: 1.74 µM
TGI [14]: 27 µM
GI50 [15]: 3.33 µM
TGI [15]: 16.7 µM
GI50 [16]: 2.67 µM
TGI [16]: 16.7 µM
GI50 [17]: 3.45 µM
TGI [17]: 28 µM
GI50 [18]: 8.65 µM
TGI [18]: 37.1 µM
GI50 [19]: 3.69 µM
TGI [19]: 43.3 µM
GI50 [20]: 2.95 µM
TGI [20]: 50.7 µM
GI50 [21]: 14.2 µM
TGI [21]: 35.2 µM
GI50 [22]: 5.58 µM
TGI [22]: 27.5 µM
GI50 [23]: 20.5 µM
TGI [23]: > 89.8 µM
GI50 [24]: 4.55 µM
TGI [24]: > 100 µM
GI50 [25]: 26.3 µM
TGI [25]: 86.5 µM
GI50 [26]: 3.54 µM
TGI [26]: 30.5 µM
GI50 [27]: 4.33 µM
TGI [27]: 60.3 µM
GI50 [28]: 3.85 µM
TGI [28]: 15.3 µM
GI50 [29]: 12.4 µM
TGI [29]: 54.1 µM
GI50 [30]: 3.27 µM
TGI [30]: 32.6 µM
GI50 [31]: 1.24 µM
TGI [31]: 5.67 µM
GI50 [32]: 5.02 µM
TGI [32]: 21.2 µM
GI50 [33]: 4.17 µM
TGI [33]: 44.3 µM
GI50 [34]: 3.65 µM
TGI [34]: 24.8 µM
GI50 [35]: 6.93 µM
TGI [35]: 31 µM
GI50 [36]: 3.34 µM
TGI [36]: 34.2 µM
GI50 [37]: 2.98 µM
TGI [37]: 15.3 µM
GI50 [38]: 4.22 µM
TGI [38]: 17.3 µM
GI50 [39]: 16.5 µM
TGI [39]: 54.6 µM
GI50 [40]: 11.1 µM
TGI [40]: 31.3 µM
GI50 [41]: 5.71 µM
TGI [41]: 21 µM
GI50 [42]: 2.37 µM
TGI [42]: 25 µM
GI50 [43]: 1.17 µM
TGI [43]: 7.55 µM
GI50 [44]: 3.61 µM
TGI [44]: 19.4 µM
GI50 [45]: 3.86 µM
TGI [45]: 28.7 µM
GI50 [46]: 2.88 µM
TGI [46]: 19.8 µM
GI50 [47]: 3.56 µM
TGI [47]: 22.8 µM
GI50 [48]: 5.19 µM
TGI [48]: 42.6 µM
GI50 [49]: 3.45 µM
TGI [49]: 13.5 µM
GI50 [50]: 5.33 µM
TGI [50]: 25.2 µM
GI50 [51]: 8.54 µM
TGI [51]: 23.9 µM
GI50 [52]: 1.06 µM
TGI [52]: 8.83 µM
GI50 [53]: 2.67 µM
TGI [53]: 14.9 µM
GI50 [54]: 4.77 µM
TGI [54]: 17.8 µM
GI50 [55]: 4.83 µM
TGI [55]: 25.6 µM
GI50 [56]: 2.39 µM
TGI [56]: 16.5 µM
GI50 [57]: 2.8 µM
TGI [57]: 13.9 µM

CCN(CC)Cc1cc(Nc2c3ccc(Cl)cc3nc3ccc(OC)cc23)ccc1O
GI50 [1]: 6.86 µM
TGI [1]: 23.3 µM
GI50 [2]: 5.76 µM
TGI [2]: 22 µM
GI50 [3]: 2.8 µM
TGI [3]: 6.63 µM
GI50 [4]: 11.1 µM
TGI [4]: 23.4 µM
GI50 [5]: 7.09 µM
TGI [5]: 20 µM
GI50 [6]: 12.2 µM
TGI [6]: 33.1 µM
GI50 [7]: 3.5 µM
TGI [7]: 17.1 µM
GI50 [8]: 1.77 µM
TGI [8]: 3.26 µM
GI50 [9]: 2.17 µM
TGI [9]: 3.89 µM
GI50 [10]: 16.5 µM
TGI [10]: 31 µM
GI50 [11]: 2.13 µM
TGI [11]: 4.21 µM
GI50 [12]: 4.21 µM
TGI [12]: 15.2 µM
GI50 [13]: 1.88 µM
TGI [13]: 3.43 µM
GI50 [14]: 7.28 µM
TGI [14]: 21.4 µM
GI50 [15]: 1.79 µM
TGI [15]: 3.34 µM
GI50 [17]: 2.65 µM
TGI [17]: 6.39 µM
GI50 [18]: 3.68 µM
TGI [18]: 12.6 µM
GI50 [19]: 5.61 µM
TGI [19]: 18.3 µM
GI50 [20]: 12 µM
TGI [20]: 34.7 µM
GI50 [21]: 2.16 µM
TGI [21]: 3.78 µM
GI50 [22]: 2.26 µM
TGI [22]: 5.03 µM
GI50 [23]: 4.7 µM
TGI [23]: 17.8 µM
GI50 [24]: 3.86 µM
TGI [24]: 55.6 µM
GI50 [25]: 6.4 µM
TGI [25]: 19.3 µM
GI50 [26]: 4.14 µM
TGI [26]: 12.2 µM
GI50 [27]: 2.34 µM
TGI [27]: 6.32 µM
GI50 [29]: 3.17 µM
TGI [29]: 14.5 µM
GI50 [30]: 4.33 µM
TGI [30]: 18.5 µM
GI50 [31]: 4.16 µM
TGI [31]: 16.1 µM
GI50 [32]: 4.03 µM
TGI [32]: 14.4 µM
GI50 [33]: 3.66 µM
TGI [33]: 13.1 µM
GI50 [34]: 3.25 µM
TGI [34]: 11.1 µM
GI50 [58]: 2.89 µM
TGI [58]: 11.7 µM
GI50 [35]: 4.28 µM
TGI [35]: 15.1 µM
GI50 [36]: 2.41 µM
TGI [36]: 7.25 µM
GI50 [37]: 1.73 µM
TGI [37]: 4.36 µM
GI50 [38]: 5.32 µM
TGI [38]: 25.5 µM
GI50 [40]: 7.59 µM
TGI [40]: 22.7 µM
GI50 [41]: 2 µM
TGI [41]: 3.82 µM
GI50 [42]: 3.32 µM
TGI [42]: 8.99 µM
GI50 [43]: 13.9 µM
TGI [43]: 27.5 µM
GI50 [44]: 2.29 µM
TGI [44]: 6 µM
GI50 [46]: 5.11 µM
TGI [46]: 21.1 µM
GI50 [47]: 2.89 µM
TGI [47]: 10.9 µM
GI50 [48]: 5.01 µM
TGI [48]: 18.3 µM
GI50 [49]: 2.36 µM
TGI [49]: 4.6 µM
GI50 [50]: 2.11 µM
TGI [50]: 4.31 µM
GI50 [51]: 3.04 µM
TGI [51]: 13.2 µM
GI50 [52]: 5.07 µM
TGI [52]: 18.9 µM
GI50 [53]: 4.62 µM
TGI [53]: 16.5 µM
GI50 [54]: 2.9 µM
TGI [54]: 10.3 µM
GI50 [55]: 5.59 µM
TGI [55]: 21.2 µM
GI50 [56]: 17.2 µM
TGI [56]: 31.4 µM
GI50 [57]: 1.6 µM
TGI [57]: 4.04 µM

CC(=O)Oc1c(-c2ccccc2)oc2ccccc12
TGI [1]: 4.15 µM
TGI [2]: 4.55 µM
TGI [3]: 2.67 µM
TGI [5]: 14 µM
TGI [6]: 6.38 µM
TGI [7]: 2.58 µM
TGI [8]: 6.56 µM
TGI [9]: 6.04 µM
TGI [10]: 5.4 µM
TGI [11]: 5.54 µM
TGI [12]: 14.2 µM
TGI [13]: 5.17 µM
TGI [14]: 5.2 µM
TGI [15]: 3.77 µM
TGI [16]: 3.28 µM
TGI [17]: 4.13 µM
TGI [18]: 12.5 µM
TGI [19]: 4.68 µM
TGI [20]: 3.99 µM
TGI [21]: 2.8 µM
TGI [22]: 5.75 µM
TGI [23]: 9.29 µM
TGI [24]: 3.93 µM
TGI [25]: 11.6 µM
TGI [26]: 4.53 µM
TGI [27]: 4.12 µM
TGI [28]: 2.86 µM
TGI [29]: 2.35 µM
TGI [30]: 6.3 µM
TGI [31]: 3.96 µM
TGI [32]: 2.44 µM
TGI [33]: 9.85 µM
TGI [34]: 11.8 µM
TGI [58]: 2.62 µM
TGI [35]: 2.86 µM
TGI [36]: 5.9 µM
TGI [37]: 3.59 µM
TGI [38]: 2.69 µM
TGI [39]: 3.66 µM
TGI [40]: 6.02 µM
TGI [41]: 1.41 µM
TGI [42]: 1.59 µM
TGI [43]: 9.72 µM
TGI [44]: 6.95 µM
TGI [45]: 5.97 µM
TGI [46]: 6.56 µM
TGI [47]: 6 µM
TGI [48]: 13.9 µM
TGI [49]: 4.35 µM
TGI [50]: 8.49 µM
TGI [51]: 2.76 µM
TGI [52]: 6.35 µM
TGI [53]: 5 µM
TGI [54]: 2.8 µM
TGI [55]: 3.33 µM
TGI [56]: 7.05 µM
TGI [57]: 4.3 µM
